The results in this text go back to patent publication US12297294B2, “Cortistatin analogues for the treatment of inflammatory and/or immune diseases” (BCN PEPTIDES, S.A., priority 2013, dated 2025).

Data set [1] is described as follows: Serum stability in 90% human serum at 37° C., RP-HPLC. It counts as in vitro ADME. Here is the method:
The new compounds were incubated with 90% human serum at 37° C. Aliquots were extracted at different incubation times. Methanol was added to precipitate the proteins from the serum, it was centrifuged and the supernatant was subject to a chromatographic analysis using RP-HPLC (Gradient: 20-80% B in 30 min, B=0.07% TFA in acetonitrile). The disappearance of the initial product was analyzed using the area corresponding to the initial product and half-life time was calculated.

In data set [2] the test system is acute colitis induced by Dextran sulfate sodium (DSS). Description: Experimental model of ulcerative colitis (DSS-induced acute colitis). In kind it is in vivo, C57Bl/6 male mice. On the procedure: 7-8 week old C57Bl/6 male mice were used. They were given voluntary drinking water with 5% of Dextran sulfate sodium (DSS) from day 0 to day 7 of the study in order to induce acute colitis. Animals in the control group were supplied with normal water. […] CST was used as a reference product. The severity of the colitis was assessed daily using a scale of values from 0 to 4 indicating the clinical disease activity index considering stool consistency, the presence of bloody stools and weight loss. Mice were sacrificed on day 8 of the study and after the necropsy the extent of macroscopic damage was established in the colon using a scale from 0 to 8. […] The average weight of the sick mice's colons was 763 mg, the average weight of the colons of the sick mice treated with CST was 621 mg and that of the colons of the sick mice treated with the new cortistatin analogues was between 614-621 mg, indicating a reduction of the inflammation of the colon.

Structures are written as SMILES. Where a SMILES comes first, the peptide text is derived from it. Bridges are numbered along the chain shown (N, C = ends).

Consider `C[C@@H](O)[C@@H]1NC(=O)[C@H](CCCCN)NC(=O)[C@H](Cc2c[nH]c3ccccc23)NC(=O)[C@H](Cc2ccccc2)NC(=O)[C@H](Cc2ccccc2)NC(=O)[C@H](CC(N)=O)NC(=O)[C@H](CCCCN)NC(=O)[C@@H](NC(=O)[C@@H]2CCCN2)CSSC[C@@H](C(=O)N[C@@H](CCCCN)C(=O)O)NC(=O)[C@H](CO)NC(=O)[C@H](CO)NC(=O)[C@H](Cc2ccccc2)NC1=O` [cortistatin] (H-PCKNFFWKTFSSCK-OH; disulfide 2-13), for which, in data set [1], the half-life (commonly the time needed for the level to fall by half in the phase considered) was determined as 2 min. For the same compound, in data set [2] (5% DSS, 0.4 mg/Kg s.c. days 1, 2 and 3, diseased group 3.7), the “clinical disease activity index (0-4)” value is recorded as 1-1.5. In addition, the “average weight of colon” value in data set [2] (necropsy day 8, sick mice 763 mg) was 621 mg. In data set [2] (necropsy day 8, sick mice 6.6), the “macroscopic grade of colitis (0-8)” value is reported as 0.87.
